Experimental data published in publication PMC7449217, “The FDA-Approved Drug Nelfinavir Inhibits Lytic Cell-Free but Not Cell-Associated Nonlytic Transmission of Human Adenovirus” (Antimicrobial Agents and Chemotherapy, 2020).
Counter-ions that a name gives are not always drawn. Like-named read-outs stand apart in the source and are kept apart here.

What was measured:
[1] = system: HAdV-C2-dE3B-GFP-infected A549 cells; assay: cellular impedance measurement (xCELLigence) of infected A549 cells, delay of cell death; type: cell-based, human; settings: 100 μM nelfinavir
Method: Impedance-based assays were performed using the xCELLigence system (Roche Applied Science and ACEA Biosciences) as described previously ([152], [153]), according to the manufacturer’s instructions ([177]), in a cell culture environment (37°C, 5% CO2, and 95% humidity) in duplicates. The 16-well E plates have a gold-plated sensor array embedded in their glass bottom by which the electrical impedance across each well bottom is measured. The impedance per well, termed the cell index (CI), is recorded as a dimensionless quantity. The background CI was assessed following the addition of 50 μl supplemented medium to each well and equilibration in the incubation environment. After 30 min of equilibration, 9,000 A549 cells in 50 μl supplemented medium were added per well, and measurement was started.
For the quantification of nelfinavir effects on the cytopathogenicity of HAdV-C2-dE3B-GFP compared to HAdV-C2-dE3B-GFP-dADP infection, 50 μl of the supernatant was removed 18 h later and replaced with nelfinavir- and virus-supplemented medium. […] The delay of infection-induced cytotoxicity was calculated as the time point at which the CI of the infected cells had decreased by 50% relative to its maximum. […]

HAdV-C2-dE3B-GFP = system: HAdV-C2-dE3B-GFP; parameters: method as in earlier work; settings: A549, 1.25 μM compound, normalized to neg. ctr., cited from earlier work
MAdV-3-pIX-FS2A-GFP = assay: fluorescence-based plaque-forming assay, CMT-93 cells; type: cell-based, mouse adenovirus
Method: (§1) Per 96-well plate, 15,000 A549 cells, 10,000 HeLa cells, 30,000 HBECs, 30,000 HCE cells, or 30,000 CMT-93 cells were seeded in 100 μl of the respective supplemented medium and allowed to settle for 1 h at room temperature (RT) prior to cell culture incubation at 37°C with 5% CO2 and 95% humidity. The following day, the medium was replaced with 50 μl of the respective virus stock dilution giving rise to 5 to 50 plaques per 96-well plate. Fifty microliters of nelfinavir to obtain a 0.1 to 50 μM final concentration or the DMSO solvent control was also added, both in supplemented medium. For each experiment, a noninfected, treated control was performed. […] Plates were imaged on either an IXM-XL or an IXM-C automated high-throughput fluorescence microscope (Molecular Devices, San Jose, CA, USA) using a 4× objective in wide-field mode. Hoechst staining was recorded in the 4′,6-diamidino-2-phenylindole (DAPI) channel, the fluorescein isothiocyanate (FITC)/GFP channel was acquired for viral GFP, and the tetramethyl rhodamine isothiocyanate (TRITC)/Texas Red channel was acquired for hexon immunofluorescence staining.
(§2) The infection phenotype for each well was quantified using Plaque2.0 ([101]). The number of plaques was determined based on the infection signal (viral GFP or hexon immunofluorescence staining). […] The mean TI50 was calculated as the EC50/TC50 ratio of the means. […]

HSV-1-CMV-GFP = assay: fluorescence-based plaque-forming assay, A549 cells; type: cell-based, herpes simplex virus 1
Method: as §1, §2

For `Cc1c(O)cccc1C(=O)N[C@@H](CSc1ccccc1)[C@H](O)CN1C[C@H]2CCCC[C@H]2C[C@H]1C(=O)NC(C)(C)C` [Nelfinavir, Nelfinavir mesylate], the “toxicity in impedance measurement of infected cells” value [1] is given as “toxic”, the “Normalized mean read-outs: Infected nuclei” value (HAdV-C2-dE3B-GFP; analysis EPFL) is given as 0.20 and the “Normalized mean read-outs: Infection index” value (HAdV-C2-dE3B-GFP; analysis EPFL) is given as 0.27. The “Normalized mean read-outs: Nuclei” value (HAdV-C2-dE3B-GFP; analysis EPFL) was 0.74, the “Normalized mean read-outs: Plaques” value (HAdV-C2-dE3B-GFP; analysis EPFL) was 0.00 and the “Normalized mean read-outs: Virus intensity” value (HAdV-C2-dE3B-GFP; analysis EPFL) was 0.33 AU. For the same compound, the “Normalized mean read-outs: Infected nuclei” value (HAdV-C2-dE3B-GFP; analysis UZH) was 0.20, the “Normalized mean read-outs: Infection index” value (HAdV-C2-dE3B-GFP; analysis UZH) was 0.23 and the “Normalized mean read-outs: Nuclei” value (HAdV-C2-dE3B-GFP; analysis UZH) was 0.85. For the same compound, the “Normalized mean read-outs: Plaques” value (HAdV-C2-dE3B-GFP; analysis UZH) was 0.0274, the “Normalized mean read-outs: Virus intensity” value (HAdV-C2-dE3B-GFP; analysis UZH) was 0.30 AU and the “TI50 (TC50/IC50)” value (MAdV-3-pIX-FS2A-GFP; MAdV-3-pIX-FS2A-GFP in CMT-93, 4 dpi, GFP) was 3.00. The EC50 (MAdV-3-pIX-FS2A-GFP; Murine mastadenovirus A, CMT93) was 8.7 µM, the “TI50 (TC50/IC50)” value (HSV-1-CMV-GFP; HSV-1-CMV-GFP in A549, 1 dpi, GFP) was 17.25 and the EC50 (HSV-1-CMV-GFP; Human alphaherpesvirus 1, A549) was 2.87 µM.
